Source: ChEMBL document CHEMBL3132772 (Medchemcomm, 2014)

What was measured:
[1] = biological target: Trypsin (Homo sapiens, UniProt P07477+P07478+P35030); experiment: Inhibition of trypsin (unknown origin) using S-2222 as substrate after 15 mins by spectrophotometry; format: protein assay
[2] = biological target: Prothrombin (Homo sapiens, UniProt P00734); experiment: Inhibition of thrombin (unknown origin) using S-2238 as substrate after 15 mins by spectrophotometry
[3] = biological target: Coagulation factor X (Homo sapiens, UniProt P00742); experiment: Inhibition of factor 10a (unknown origin) using S-2222 as substrate after 15 mins by spectrophotometry
Sequence of Coagulation factor X (P00742 41-179 limits assumed): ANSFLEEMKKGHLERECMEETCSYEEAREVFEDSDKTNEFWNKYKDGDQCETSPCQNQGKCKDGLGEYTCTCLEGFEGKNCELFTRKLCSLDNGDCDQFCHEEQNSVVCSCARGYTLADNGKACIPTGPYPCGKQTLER
Sequence of Coagulation factor X (P00742 235-488 limits assumed): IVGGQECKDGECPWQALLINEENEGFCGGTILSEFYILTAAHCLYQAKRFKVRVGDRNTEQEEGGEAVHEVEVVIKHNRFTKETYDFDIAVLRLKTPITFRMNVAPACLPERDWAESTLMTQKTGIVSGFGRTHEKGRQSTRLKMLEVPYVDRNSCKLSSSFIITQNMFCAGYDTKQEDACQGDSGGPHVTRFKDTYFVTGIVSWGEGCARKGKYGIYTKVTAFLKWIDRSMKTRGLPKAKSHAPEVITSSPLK

[4] = Metabolic stability in human plasma assessed as compound remaining at […] after 4 hrs by HPLC analysis; format: ADME, cell-free; settings: read-out: Stability

Ki [1] | Ki [2] | Ki [3] | remaining at 4 h [4] | SMILES
> 100 µM | 16.6 µM | 0.0887 µM |  | O=C(NC[C@H]1CN(c2ccc(N3CCC(C(=O)O)CC3)cc2)C(=O)O1)c1ccc(Cl)s1 (mixture of isomers)
> 100 µM | 0.353 µM | 0.0622 µM | 100% | CCOC(=O)C1CCCCN1c1ccc(N2C[C@H](CNC(=O)c3ccc(Cl)s3)OC2=O)cc1 (mixture of isomers)
> 100 µM | > 100 µM | 0.0219 µM |  | CCOC(=O)C1CCN(c2ccc(N3C[C@H](CNC(=O)c4ccc(Cl)s4)OC3=O)cc2)C(=O)C1 (mixture of isomers)
> 100 µM | 69.6 µM | 0.337 µM |  | O=C(NC[C@H]1CN(c2ccc(N3CCC(C(=O)O)CC3=O)cc2)C(=O)O1)c1ccc(Cl)s1 (mixture of isomers)
> 100 µM | > 100 µM | 0.769 µM | 95% | CCOC(=O)C1CCN(c2ccc(N3C[C@H](CNC(=O)c4ccc(Cl)s4)OC3=O)cc2)CC1 (mixture of isomers)
> 100 µM | > 100 µM | 0.0624 µM |  | CCOC(=O)C1CCCN(c2ccc(N3C[C@H](CNC(=O)c4ccc(Cl)s4)OC3=O)cc2)C1 (mixture of isomers)
> 100 µM | 17.6 µM | 1.22 µM |  | O=C(NC[C@H]1CN(c2ccc(N3CCCC(C(=O)O)C3)cc2)C(=O)O1)c1ccc(Cl)s1 (mixture of isomers)
